Results on 40 molecules are retold here after US6140368A, “Naphthols useful in antiviral methods” (The Regents of the University of California, priority 1998, dated 2000).

Each structure is given as a SMILES string.

The first assay concerns the target HIV reverse transcriptase (Human immunodeficiency virus type 1 group M subtype B, UniProt P03366). Briefly: Reverse transcriptase scintillation proximity assay (Example 4, Table 2). In kind it is biochemical. As to conditions: 10 μM inhibitor; relative to dimethyl sulfoxide = 100%; 3 min. How it is done: Reverse transcriptase ("RT") activity is measured using a scintillation proximity assay kit available from Amersham Life Sciences, Inc., which uses a biotin/streptavidin bead capture system. RNA-dependent polymerase activity is measured using purified […] and a synthetic 17mer/50mer RNA-DNA template-primer containing biotin at the 5' end of the DNA. The template-primer, buffer, dNTP, and inhibitor are incubated for 10 minutes at 37° C. before the RT is added. The final 100 μl reaction mixture contains: 39 nm of template primer, buffer (40 mM tris HCl at pH 8.0, 10 mM MgCl2, 60 mM KCl, 10 mM dithiothreitol); 75 nM of each dNTP except dTTP; 25 nM dTTP and 35 nM tritium labeled d*TTP; 10 μM inhibitor; and 1.0-2.0 μg of RT. After three minute incubation, the reaction is quenched with 40 μl of 0.56M EDTA. Then 10 μl of streptavidin SPA beads (in suspension) are added and incubated at 37° C. for 10 minutes. Finally, 850 μl of a buffer containing 10 mM Tris HCl pH 7.4 and 0.15M NaCl is added. The signal is produced by biotinylated polymers incorporating d*TTP binding to the streptavidin beads which stimulate the scintillant. The amount of d*TTP incorporated in the polymer is measured with a scintillation counter.
Compounds showing good inhibition will give a low number of counts/min (cpm). This number is related to a standard, dimethyl sulfoxide, which is given an arbitrary 100% relative activity. All cpm data in a single run are given a percent of this standard.
(In general: SPA uses beads or plates that emit light when radiolabelled molecules are held near them.)
For `O=C(Nc1ccc2c(O)c(N=Nc3ccc([As](=O)(O)O)cc3)c(S(=O)(=O)O)cc2c1)Nc1ccc2c(O)c(N=Nc3ccc([As](=O)(O)O)cc3)c(S(=O)(=O)O)cc2c1` [Compound 48], the “% RT activity remaining at 10 μM” value was 17%.

The assay is the same for the next values; noted with them: 10 μM inhibitor; relative to dimethyl sulfoxide = 100%; 3 min, 10 µM.
As for `CCOC(=O)c1ccc(NC(=O)Nc2ccc3c(O)cc(S(=O)(=O)O)cc3c2)cc1` [Compound 28], the “% RT activity remaining at 10 μM” value is 100%.

The same assay, now with this note: 0.05 h, 10 μM inhibitor; relative to dimethyl sulfoxide = 100%; read-out: % RT activity remaining at 10 μM.
Consider `Cc1ccc(CO)cc1N=Nc1c(S(=O)(=O)O)cc2cc(NC(=O)c3ccc(C(=O)Nc4ccc5c(O)c(N=Nc6cc(CO)ccc6C)c(S(=O)(=O)O)cc5c4)cc3)ccc2c1O` [Compound 180], for which the remaining activity – broadly, what remains of the control signal, in per cent – at 10 µM amounted to 45%. On the same count and under the same terms, in the case of `O=C(Nc1ccc2c(O)cc(S(=O)(=O)O)cc2c1)Nc1cccc2ccccc12` [Compound 11] it was 90%; in that of `COc1cc(C(=O)O)ccc1N=Nc1c(S(=O)(=O)O)cc2cc(NC(=O)c3cc(=O)cc(C(=O)Nc4ccc5c(O)c(N=Nc6ccc(C(=O)O)cc6OC)c(S(=O)(=O)O)cc5c4)o3)ccc2c1O` [Compound 139], 0.34%. On the same count and under the same terms, the figure for `CCOC(=O)c1ccc(NC(=O)Nc2ccc3c(O)cc(S(=O)(=O)O)cc3c2)cc1` [Compound 25] is 86%; for `Cc1cc(C(=O)O)ccc1N=Nc1c(S(=O)(=O)O)cc2cc(NC(=O)c3cccc(C(=O)Nc4ccc5c(O)c(N=Nc6ccc(C(=O)O)cc6C)c(S(=O)(=O)O)cc5c4)n3)ccc2c1O` [Compound 130] it is 0.35%; for `O=C(O)c1cc(N=Nc2c(S(=O)(=O)O)cc3cc(NC(=O)c4ccc(C(=O)Nc5ccc6c(O)c(N=Nc7cc(C(=O)O)cc(C(=O)O)c7)c(S(=O)(=O)O)cc6c5)cc4)ccc3c2O)cc(C(=O)O)c1` [Compound 178] it is 91%. `O=C(O)CCc1ccc(N=Nc2c(S(=O)(=O)O)cc3cc(NC(=O)c4cc(=O)cc(C(=O)Nc5ccc6c(O)c(N=Nc7ccc(CCC(=O)O)cc7)c(S(=O)(=O)O)cc6c5)o4)ccc3c2O)cc1` [Compound 134]: the remaining activity at 10 µM is 0.25%.

In the case of `O=C(Nc1ccc2c(O)c(N=Nc3ccc(Br)cc3Br)c(S(=O)(=O)O)cc2c1)c1ccc(C(=O)Nc2ccc3c(O)c(N=Nc4ccc(Br)cc4Br)c(S(=O)(=O)O)cc3c2)cc1` [Compound 182], the remaining activity at 10 µM came out at 35%. The same measure, in the same setting: in the case of `CC(NC(=O)Nc1ccc2c(O)cc(S(=O)(=O)O)cc2c1)c1ccc(F)cc1` (stereo not shown) [Compound 12] it was 88%; in that of `O=C(O)c1cc(N=Nc2c(S(=O)(=O)O)cc3cc(NC(=O)c4cc(=O)cc(C(=O)Nc5ccc6c(O)c(N=Nc7cc(C(=O)O)cc(C(=O)O)c7)c(S(=O)(=O)O)cc6c5)o4)ccc3c2O)cc(C(=O)O)c1` [Compound 143], 0.23%. As to `CCOC(=O)c1ccc(N=Nc2c(S(=O)(=O)O)cc3cc(NC(=O)Nc4ccc5c(O)c(N=Nc6ccc(C(=O)OCC)cc6)c(S(=O)(=O)O)cc5c4)ccc3c2O)cc1` [Compound 44], the remaining activity at 10 µM turned out to be 19%. In the case of `O=C(Nc1cnc2ccccc2c1)Nc1ccc2c(O)cc(S(=O)(=O)O)cc2c1` [Compound 14], the remaining activity at 10 µM turned out to be 90%. Consider `O=C(O)Cc1ccc(N=Nc2c(S(=O)(=O)O)cc3cc(NC(=O)c4cccc(C(=O)Nc5ccc6c(O)c(N=Nc7ccc(CC(=O)O)cc7)c(S(=O)(=O)O)cc6c5)n4)ccc3c2O)cc1` [Compound 119], for which the remaining activity at 10 µM amounted to 0.29%. Same read-out and setting: the figure for `COC(=O)c1cc(NC(=O)Nc2ccc3c4c(cccc24)C(=O)OC3=O)cc(C(=O)OC)c1` [Compound 83] is 77%; for `O=C(O)/C=C/c1ccc(N=Nc2c(S(=O)(=O)O)cc3ccc(Nc4c(Nc5ccc6cc(S(=O)(=O)O)c(N=Nc7ccc(/C=C/C(=O)O)cc7)c(O)c6c5)c(=O)c4=O)cc3c2O)cc1` [Compound 199] it is 1.2%. Consider `COc1cc(C(=O)O)c(N=Nc2c(S(=O)(=O)O)cc3cc(NC(=O)c4ccc(C(=O)Nc5ccc6c(O)c(N=Nc7c(C(=O)O)cc(OC)c(OC)c7OC)c(S(=O)(=O)O)cc6c5)cc4)ccc3c2O)c(OC)c1OC` [Compound 177], for which the remaining activity at 10 µM was determined as 0.17%.

In the case of `O=C(O)CCc1ccc(N=Nc2c(S(=O)(=O)O)cc3cc(NC(=O)c4cccc(C(=O)Nc5ccc6c(O)c(N=Nc7ccc(CCC(=O)O)cc7)c(S(=O)(=O)O)cc6c5)n4)ccc3c2O)cc1` [Compound 120], the remaining activity at 10 µM turned out to be 0.21%. Same read-out and setting: in the case of `COc1cc(C(=O)O)ccc1N=Nc1c(S(=O)(=O)O)cc2cc(NC(=O)c3ccc(C(=O)Nc4ccc5c(O)c(N=Nc6ccc(C(=O)O)cc6OC)c(S(=O)(=O)O)cc5c4)cc3)ccc2c1O` [Compound 167] it was 0.26%. Turning to `O=C(O)Cc1ccc(N=Nc2c(S(=O)(=O)O)cc3cc(NC(=O)c4cc(=O)cc(C(=O)Nc5ccc6c(O)c(N=Nc7ccc(CC(=O)O)cc7)c(S(=O)(=O)O)cc6c5)o4)ccc3c2O)cc1` [Compound 133], the remaining activity at 10 µM was determined as 0.4%. On the same count and under the same terms, in the case of `O=C(Nc1ccc2cc(S(=O)(=O)O)cc(O)c2c1)Nc1ccc2cc(S(=O)(=O)O)cc(O)c2c1` [Compound 77] it was 84%; in that of `Nc1cccc2c(NC(=O)Nc3ccc4c(O)cc(S(=O)(=O)O)cc4c3)cccc12` [Compound 19], 80%; in that of `O=C(Nc1ccc2ccccc2c1)Nc1ccc2c(O)cc(S(=O)(=O)O)cc2c1` [Compound 13], 82%. Turning to `O=C(O)c1ccc(N=Nc2c(S(=O)(=O)O)cc3cc(NC(=O)c4cccc(C(=O)Nc5ccc6c(O)c(N=Nc7ccc(C(=O)O)cc7)c(S(=O)(=O)O)cc6c5)n4)ccc3c2O)cc1` [Compound 118], the remaining activity at 10 µM is 0.25%. Same read-out and setting: the figure for `CCOC(=O)c1cccc(NC(=O)Nc2ccc3cc(S(=O)(=O)O)cc(O)c3c2)c1` [Compound 75] is 85%; for `O=C(Nc1ccc2c(S(=O)(=O)O)cccc2c1)Nc1ccc2c(S(=O)(=O)O)cccc2c1` [Compound 81] it is 78%. Same read-out and setting: in the case of `O=C(O)CC(C(=O)O)c1ccc(N=Nc2c(S(=O)(=O)O)cc3cc(NC(=O)c4cccc(C(=O)Nc5ccc6c(O)c(N=Nc7ccc(C(CC(=O)O)C(=O)O)cc7)c(S(=O)(=O)O)cc6c5)n4)ccc3c2O)cc1` (stereo not shown) [Compound 124] it was 1.2%; in that of `Cc1cc(C(=O)O)ccc1N=Nc1c(S(=O)(=O)O)cc2cc(NC(=O)c3cc(=O)cc(C(=O)Nc4ccc5c(O)c(N=Nc6ccc(C(=O)O)cc6C)c(S(=O)(=O)O)cc5c4)o3)ccc2c1O` [Compound 144], 0.26%; in that of `O=c1c(Nc2ccc3cc(S(=O)(=O)O)cc(O)c3c2)c(Nc2ccc3cc(S(=O)(=O)O)cc(O)c3c2)c1=O` [Compound 198], 37%.

Regarding `O=C(O)c1ccc(Cl)c(N=Nc2c(S(=O)(=O)O)cc3cc(NC(=O)c4ccc(C(=O)Nc5ccc6c(O)c(N=Nc7cc(C(=O)O)ccc7Cl)c(S(=O)(=O)O)cc6c5)cc4)ccc3c2O)c1` [Compound 172], the remaining activity at 10 µM worked out at 0.08%.

In the case of `O=C(O)CCCCCc1ccc(N=Nc2c(S(=O)(=O)O)cc3cc(NC(=O)c4cccc(C(=O)Nc5ccc6c(O)c(N=Nc7ccc(CCCCCC(=O)O)cc7)c(S(=O)(=O)O)cc6c5)n4)ccc3c2O)cc1` [Compound 121], the remaining activity at 10 µM is 0.16%.

For `O=C(Nc1ccc2c(O)cc(S(=O)(=O)O)cc2c1)Nc1cccc2c(=O)[nH][nH]c(=O)c12` [Compound 16], the remaining activity at 10 µM was 81%.

In the case of `O=C(O)CCCCCc1ccc(N=Nc2c(S(=O)(=O)O)cc3cc(NC(=O)c4cc(=O)cc(C(=O)Nc5ccc6c(O)c(N=Nc7ccc(CCCCCC(=O)O)cc7)c(S(=O)(=O)O)cc6c5)o4)ccc3c2O)cc1` [Compound 135], the remaining activity at 10 µM was 0.16%.

`Cc1cc(C(=O)O)ccc1N=Nc1c(S(=O)(=O)O)cc2cc(NC(=O)c3ccc(C(=O)Nc4ccc5c(O)c(N=Nc6ccc(C(=O)O)cc6C)c(S(=O)(=O)O)cc5c4)cc3)ccc2c1O` [Compound 168]: the remaining activity at 10 µM amounted to 0.5%. On the same count and under the same terms, the figure for `O=C(O)c1ccc(N=Nc2c(S(=O)(=O)O)cc3cc(NC(=O)c4cc(=O)cc(C(=O)Nc5ccc6c(O)c(N=Nc7ccc(C(=O)O)cc7)c(S(=O)(=O)O)cc6c5)o4)ccc3c2O)cc1` [Compound 132] is 0.19%. Still for that read-out and setting: in the case of `O=C(O)CC(C(=O)O)c1ccc(N=Nc2c(S(=O)(=O)O)cc3cc(NC(=O)c4ccc(C(=O)Nc5ccc6c(O)c(N=Nc7ccc(C(CC(=O)O)C(=O)O)cc7)c(S(=O)(=O)O)cc6c5)cc4)ccc3c2O)cc1` (stereo not shown) [Compound 166] it was 0.14%.

As for `O=C(Nc1ccc2ccc(S(=O)(=O)O)cc2c1)Nc1ccc2c(O)cc(S(=O)(=O)O)cc2c1` [Compound 7], the remaining activity at 10 µM was 78%.

Consider `O=C(O)CCc1ccc(N=Nc2c(S(=O)(=O)O)cc3cc(NC(=O)c4ccc(C(=O)Nc5ccc6c(O)c(N=Nc7ccc(CCC(=O)O)cc7)c(S(=O)(=O)O)cc6c5)cc4)ccc3c2O)cc1` [Compound 164], for which the remaining activity at 10 µM was determined as 0.15%. On to `COc1cc(N=Nc2c(S(=O)(=O)O)cc3cc(NC(=O)c4cc(O)cc(C(=O)Nc5ccc6c(O)c(N=Nc7cc(OC)c(OC)c(OC)c7C(=O)O)c(S(=O)(=O)O)cc6c5)n4)ccc3c2O)c(C(=O)O)c(OC)c1OC` [Compound 156], for which the remaining activity at 10 µM stood at 15%.
